Where a chain is given by its changes, count along the chain named. Ends that are not written are not given here.
Columns and labels:
BS69MYND Y532A = target: T1, BS69MYND Y532A (Mus musculus, UniProt Q8R5C8, Y572A); experiment: ITC binding to BS69MYND Y532A; conditions: versus BS69MYND wild type
T1 construct: GST (N, cleaved yes); made in house; host or cells: E. coli BL21 (DE3) RIL
T1 sequence (Q8R5C8 556-602 Y572A): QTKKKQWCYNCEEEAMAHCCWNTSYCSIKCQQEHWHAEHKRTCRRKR
Description: (§1) The DNA sequence encoding residues 440–562 (BS69CC-MYND) of mouse BS69/ZMYND11 was inserted into a modified PRSF-duet vector (Novagen), in which the BS69 fragments are separated from the preceding His6-SUMO tag by a ubiquitin-like protein (ULP1) cleavage site; and the DNA sequence encoding BS69 516–562 (BS69MYND) was inserted into a pGEX-6P-1 vector (GE Healthcare), preceded by a GST tag and a PreScission protease cleavage site. Note that the amino acid sequences of both fragments are identical to the corresponding regions of human BS69. The BS69MYND mutants were constructed by site-directed mutagenesis and confirmed by DNA sequencing. The plasmid was then transformed into BL21 (DE3) RIL cell strain for overexpression. The bacterial cells were grown at 37°C and induced by 0.4 mM isopropyl β-d-1-thiogalactopyranoside (IPTG) when the cells density reached an optical density (OD600) of 0.6. After induction, the cells continued to grow at 20°C for overnight. […]
(§2) The EBNA2_381–389 peptide with an additional Gly-Tyr dipeptide at the C-terminus (NH2-SMPSLEPVLGY-CONH2), the EBNA2_435–445 peptide, and the EBNA2_381–445 peptide were used for ITC assays. […] The ITC data was analyzed with the Origin 7.0 software using a one-site fitting model.

BS69MYND Q546A = experiment: ITC binding to BS69MYND Q546A; set-up: species or system mouse
Description: as §1, §2

BS69MYND W550A = experiment: ITC binding to BS69MYND W550A; set-up: species or system mouse; conditions: mutation W550A, EBNA2_381–389 peptide used with additional C-terminal Gly-Tyr
Description: as §1, §2

BS69MYND R560A = target: T2, BS69MYND R560A (Mus musculus, UniProt Q8R5C8, R600A); experiment: ITC binding to BS69MYND R560A; conditions: versus BS69MYND wild type
T2 construct: GST (N, cleaved yes); made in house; host or cells: E. coli BL21 (DE3) RIL
T2 sequence (Q8R5C8 556-602 R600A): T1 sequence (Q8R5C8 556-602 Y572A) with A17Y, R45A
Description: as §1, §2

BS69CC-MYND = target: T3, BS69CC-MYND (Mus musculus, UniProt Q8R5C8); experiment: ITC binding to BS69CC-MYND wild type; conditions: EBNA2_435–445, peptide titrated into BS69CC-MYND, 5°C, 20 mM Tris-HCl pH 7.5, 100 mM NaCl, 2 mM DTT, one-site fitting, read-out: dissociation constant (K d)
T3 construct: His6-SUMO (N, cleaved yes); made in house; host or cells: E. coli BL21 (DE3) RIL
T3 sequence (Q8R5C8 480-602): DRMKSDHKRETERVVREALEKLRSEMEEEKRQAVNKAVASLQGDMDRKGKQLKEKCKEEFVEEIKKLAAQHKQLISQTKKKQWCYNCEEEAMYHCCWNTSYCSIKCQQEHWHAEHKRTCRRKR
Description: as §1, §2

BS69MYND = target: T4, BS69MYND (Mus musculus, UniProt Q8R5C8); experiment: ITC binding to BS69MYND wild type; conditions: EBNA2_435–445, peptide titrated into BS69MYND, 5°C, 20 mM Tris-HCl pH 7.5, 100 mM NaCl, 2 mM DTT, one-site fitting, read-out: dissociation constant (K d)
T4 construct: GST (N, cleaved yes); made in house; host or cells: E. coli BL21 (DE3) RIL
T4 sequence (Q8R5C8 556-602): T1 sequence (Q8R5C8 556-602 Y572A) with A17Y
Description: as §1, §2

BS69CC-MYND Q546A = experiment: ITC binding to BS69CC-MYND Q546A; set-up: species or system mouse; conditions: S1D Fig; ITC parameters could not be reliably determined
Description: as §1, §2

BS69CC-MYND Q546A/W550A = experiment: ITC binding to BS69CC-MYND Q546A/W550A; set-up: species or system mouse; conditions: S1E Fig; ITC parameters could not be reliably determined
Description: as §1, §2

| Substance | decrease of BS69MYND-EBNA2_381–389 binding by mutation Y532A (BS69MYND Y532A) | interaction with BS69MYND Q546A (BS69MYND Q546A; mutation Q546A, EBNA2_381–389 peptide used with additional C-terminal Gly-Tyr) | interaction with BS69MYND W550A (BS69MYND W550A) | decrease of BS69MYND-EBNA2_381–389 binding by mutation R560A (BS69MYND R560A) | Kd (BS69CC-MYND) | Kd (BS69MYND) | effect of Q546A on binding affinity of BS69MYND-EBNA2_435–445 complex (BS69MYND Q546A; BS69MYND Q546A) | ITC heat measurements with BS69CC-MYND Q546A (BS69CC-MYND Q546A) | ITC heat measurements with BS69CC-MYND Q546A/W550A (BS69CC-MYND Q546A/W550A) |
| --- | --- | --- | --- | --- | --- | --- | --- | --- | --- |
| H-SMPSLEPVLGY-NH2 [EBNA2_381–389] | about 3 fold | largely abolished the interaction | largely abolished the interaction | ~10 fold | – | – | – | – | – |
| EAPILFPDDWY-NH2 [EBNA2_435–445] | – | – | – | – | 34.9 µM | 93.4 µM | substantially decreases | significantly lower than those of Fig 2H | significantly lower than those of Fig 2H |

From PMC4742278, “BS69/ZMYND11 C-Terminal Domains Bind and Inhibit EBNA2” (PLoS Pathogens, 2016)
